Consider six compounds from US10842814B2, “Use of low dose arsenic for preserving genomic integrity” (Board of Regents of the University of Texas System, priority 2016, dated 2020).

Entries after “also recorded” stand apart in the source; their conditions may differ.

The nature of series [1]: Clinical trial: toxicity and blood counts during myelosuppressive chemotherapy. In kind it is in vivo, human. From the text:
Additionally, data from a clinical trial supports a beneficial effect of LDA in patients. The trial had two objectives: 1) to define the lowest safe dose of arsenic trioxide that blocks p53 activation in patients and 2) to assess the potential of LDA in decreasing hematological toxicity from myelosuppressive chemotherapy. Patients scheduled for treatment with at least 4 cycles of myelosuppressive chemotherapy with a minimum of 2 weeks between the cycles were eligible.
The p53 expression level in patients' peripheral lymphocytes was measured as a surrogate marker for p53 activity for the patients. […] For the second stage of the study (second objective), patients were treated with chemotherapy without any LDA pretreatment before cycles 1, 3 and 5. They were treated with intravenous LDA of 0.005 mg/kg for 3 days prior to cycles 2, 4 and 6. […] Because the competing and compounding effects of multi-drug chemotherapy on p53 were felt to affect the p53 activity even in the presence of LDA pretreatment, we decided to focus on p53 activity obtained just prior to chemotherapy administration (on day 1). If the p53 activity level for the subsequent cycle (e.g., cycle 2 for cycle 1, cycle 4 for cycle 3 etc.) was lower than the baseline cycle, p53 was defined as “suppressed” for the pair of cycles. […]

The subject of a further series is telomere. The note with it: individuals with telomere maintenance disorders; cited from earlier work.
The test system of another series is bone marrow cells. The experiment in a line: Bone marrow protection against Y-90 ibritumomab tiuxetan-induced damage (H&E, γ-H2AX, TUNEL staining). In kind it is in vivo, BALB/c mice. The procedure: At the indicated time points, mice were sacrificed by cervical […] and bone marrows were harvested for staining. (A) Quantification of γ-H2AX positive cells.
LDA pretreatment was administered through drinking water containing 1 mg/L arsenic trioxide for three days. […] Tissue samples were collected at different time points (3 hours to 5 weeks) after treatment.
Bone marrow damage was analyzed histologically with hematoxylin and eosin (H&E) staining, DNA DSBs were assessed by γ-H2AX staining and apoptosis was detected by terminal deoxynucleotidyl transferase dUTP nick end labeling (TUNEL) staining.

The test system of the next series is Karpas 422. Kind of series: Mouse xenograft model with CD20 expressing lymphoma cell line, tumor volume. In kind it is in vivo. The procedure:
Treatments were initiated 1 week after implantation when tumors became palpable. Tumor volumes were measured periodically with calipers. Tumor volume was calculated using the equation: volume=length×width×depth×0.5236 […]. Two independent experiments were done and the tumor volumes were expressed as means±SE.

A further series concerns peripheral T-lymphocytes. The experiment in a line: Telomere length of ConA-stimulated peripheral blood T-lymphocytes after radiation or chemotherapy. The settings on record: 100 nM arsenic trioxide for 24 hours, then 12 Gy X-ray, harvested 48 hours later. In kind it is cell-based, human. As to the method: FIG. 2. T-lymphocytes isolated from healthy donors' peripheral blood were incubated with 10 μg/ml of Concanavalin A overnight. The cells were treated with either solvent or 100 nM arsenic (As) trioxide for 24 hours, followed by 12 Gy of X-ray treatment. Forty-eight hours later, the cells were harvested for telomere length measurement. The results represent four independent experiments. Paired student's t-test was used to calculate the p values.
FIG. 3. (A) Live cell percentage and (B) relative telomere length of T-lymphocytes in response to a serial dilution of etoposide. (C) Live cell percentage and (D) relative telomere length of T-lymphocytes treated with solvent or 160 μM etoposide in the presence or absence of LDA pretreatment.
FIG. 4. (A) Live cell percentage and (B) relative telomere length of T-lymphocytes in response to a serial dilution of doxorubicin. (C) Live cell percentage and (D) relative telomere length of T-lymphocytes treated with solvent or 1.6 μM doxorubicin in the presence or absence of LDA pretreatment.
As one of the first steps to explore the role of LDA in protecting the bone marrow from DNA DSBs as observed in FIG. 1 above, we studied the effect of LDA on telomere length in the setting of IR. We observed the expected shortening of telomere length in the peripheral T-lymphocytes (obtained from donors' peripheral blood and proliferated with ConA) after IR.

The test system of series [2] is T-cell leukemic cell line (Loucy). The experiment in a line: Relative telomere length of T-cell leukemic cell line after 12 Gy radiation. The settings on record: presence or absence of LDA. The class given is cell-based. From the text:
FIG. 5. Relative telomere length of T-cell leukemic cell line (Loucy) after 12 Gy of radiation in the presence or absence of LDA treatment.

Series [3] concerns mouse embryonic stem (ES) cells (WT, msh2−/−, p53−/−). Kind of series: Survival fraction of ES cells exposed to γ radiation and LDA. The class given is cell-based. As to the method:
FIG. 6. Dose response to γ radiation and sodium (Na) arsenite. (A, B) Survival fraction curves to determine the working doses. The wild type (WT) cells (black, green) are the parental cells for the msh2 and p53 mutations, respectively. (C, D) Survival fraction curves with msh2−/− and p53−/− cells exposed to γ radiation and LDA (100 nM Na arsenite). Error bars are shown for the average of 3 independent experiments.
To discover LDA essential genes, cell survival and DNA damage/mutation assays will be performed. First we will establish working doses for all control and mutant cells in Table 1 since they will vary depending on the mutation. As a pilot we started with ES cells mutated for Msh2 and p53 since mutations in both are implicated in the development and progression of secondary MDS/AML.
Msh2 is a member of mismatch repair (MMR) important for postreplication repair and homologous recombination regulation while p53 is essential for responses to a variety of stresses including DNA damage and ribosomal stress. Based on the dose response curve (FIGS. 6A, B), cells will be exposed to 100 nM sodium arsenite 24 hours before exposure to 3-6 Gy. […] Since the differences for the […] cells and their control cells are small, we will repeat the experiment with different Na arsenite doses. […]

The test system of another series is untransformed cells. Kind of series: Pretreatment of untransformed cells with LDA: p53, NF-kB, glycolysis. The note with it: in vitro and in vivo studies. The class given is cell-based. From the text: Activation of p53 is one of the major pathways by which DNA damaging agents such as radiation therapy and chemotherapy cause toxicity in normal tissues and it induces a cascade of events that eventually leads to cell senescence or death. […] This metabolic shift provides cells with effective protection against cytotoxic radiation or chemotherapy, coupling the metabolic pathway to cellular resistance. […] This protective effect is selective to normal tissues, as it requires functional p53. Though not every cancer cell has detectable p53 mutation, essentially every cancer cell has dysfunctional p53. Therefore, cancer cells will not be protected by this strategy.
Activation of p53 is one of major pathways by which DNA damaging agents such as IR and chemotherapy cause toxicity in normal tissues, inducing a cascade of events that eventually leads to cell senescence or cell death. […] This metabolic shift provides cells with effective protection against cytotoxic IR or chemotherapy, coupling the metabolic pathway to cellular resistance. […] Importantly, this protective effect is selective to normal tissues, as it requires functional p53. Though not every cancer cell has a detectable p53 mutation, essentially every cancer cell has dysfunctional p53. Therefore, cancer cells will not be protected by this strategy.

Series [4] deals with mouse embryonic stem cells expressing RAD51^K133A. The experiment in a line: Loss of heterozygosity (LOH) assay, miniHPRT deletion, 6-TG resistance. In kind it is cell-based. From the text:
FIG. 8. […] NT; no arsenite treatment, WT; wild type embryonic stem cells, KA; mutant embryonic stem cells expressing RAD51^K133A
We performed a loss of heterozygosity (LOH) assay to detect mutations in the HPRT gene [resistance to 6-TG (thioguanine)] utilizing a mouse embryonic stem cells that express RAD51^K133A. We used a knockout-knockin strategy that introduces RAD51^K133A adjacent to the mouse RAD51 promoter while restoring miniHPRT, a positive/negative selection cassette: select for expression in HAT (hypoxanthine, aminopterin, thymidine) and select against expression in 6-TG. We screen for LOH of miniHPRT by selecting in 6-TG. Using this assay, we can detect a broad range of mutations. RAD51 is a recombinase that is essential for DNA double strand break repair and for protecting the nascent strand during replication. The K133A mutation is in the highly conserved Walker A motif and it causes a defect in ATP binding that disables the ability of RAD51 to induce topological changes in duplex DNA in an ATP-dependent manner.
For this assay, mutant mouse embryonic stem cells expressing RAD51^K133A were passaged two times while being selected in HAT to remove any cells that spontaneously deleted miniHPRT. Then LDA and HAT were applied to these cells for 2 days. […] Cells were then seeded onto new plates in 6-TG and colonies were counted 8 days later. […]

A further series addresses T1, telomerase (Homo sapiens, UniProt O14746).
T1 construct: Extracted protein (500 ng) was used to assess telomerase activity by TRAP; endogenous in cells; host or cells: HEK 293T cells
The experiment in a line: Telomerase activity by TRAP assay. In kind it is cell-based. The settings on record: HEK 293T, LDA 0 nM to 500 nM for 24 hrs, 12 Gy IR, further 48 hrs. As to the method:
FIG. 7. HEK cells were stimulated with ConA, 10 μg/ml. After 24 hrs, LDA was introduced (range from 0 nM to 500 nM) and again incubated 24 hrs. 12 Gy of IR was delivered, cells were incubated an additional 48 hrs and harvested. Extracted protein (500 ng) was used to assess telomerase activity by TRAP, compared with a telomerase positive control and no-Arsenic, no-IR control. HI: heat inactivated.
However, we will test this observation in T lymphocytes, which are known to dynamically regulate telomerase expression. This will better recapitulate the effect of LDA within the hematopoietic compartment.

The nature of series [5]: Observation of arsenic-induced malignancy in animal model. In kind it is in vivo. From the text:
Arsenic has different biological effects in vitro and induces expression of different sets of genes depending on the dose. Our approach with LDA aims to mitigate certain known adverse biological effects. For example, arsenic trioxide is a cytotoxic agent used to treat acute promyelocytic leukemia (APL). However, the dose of arsenic trioxide used for our strategy is much lower than the dose used to treat APL. Arsenic is also a known carcinogen.

Series [6] concerns human adult foreskin keratinocytes. The settings on record: cited from earlier work.

T1 sequence (O14746 whole entry): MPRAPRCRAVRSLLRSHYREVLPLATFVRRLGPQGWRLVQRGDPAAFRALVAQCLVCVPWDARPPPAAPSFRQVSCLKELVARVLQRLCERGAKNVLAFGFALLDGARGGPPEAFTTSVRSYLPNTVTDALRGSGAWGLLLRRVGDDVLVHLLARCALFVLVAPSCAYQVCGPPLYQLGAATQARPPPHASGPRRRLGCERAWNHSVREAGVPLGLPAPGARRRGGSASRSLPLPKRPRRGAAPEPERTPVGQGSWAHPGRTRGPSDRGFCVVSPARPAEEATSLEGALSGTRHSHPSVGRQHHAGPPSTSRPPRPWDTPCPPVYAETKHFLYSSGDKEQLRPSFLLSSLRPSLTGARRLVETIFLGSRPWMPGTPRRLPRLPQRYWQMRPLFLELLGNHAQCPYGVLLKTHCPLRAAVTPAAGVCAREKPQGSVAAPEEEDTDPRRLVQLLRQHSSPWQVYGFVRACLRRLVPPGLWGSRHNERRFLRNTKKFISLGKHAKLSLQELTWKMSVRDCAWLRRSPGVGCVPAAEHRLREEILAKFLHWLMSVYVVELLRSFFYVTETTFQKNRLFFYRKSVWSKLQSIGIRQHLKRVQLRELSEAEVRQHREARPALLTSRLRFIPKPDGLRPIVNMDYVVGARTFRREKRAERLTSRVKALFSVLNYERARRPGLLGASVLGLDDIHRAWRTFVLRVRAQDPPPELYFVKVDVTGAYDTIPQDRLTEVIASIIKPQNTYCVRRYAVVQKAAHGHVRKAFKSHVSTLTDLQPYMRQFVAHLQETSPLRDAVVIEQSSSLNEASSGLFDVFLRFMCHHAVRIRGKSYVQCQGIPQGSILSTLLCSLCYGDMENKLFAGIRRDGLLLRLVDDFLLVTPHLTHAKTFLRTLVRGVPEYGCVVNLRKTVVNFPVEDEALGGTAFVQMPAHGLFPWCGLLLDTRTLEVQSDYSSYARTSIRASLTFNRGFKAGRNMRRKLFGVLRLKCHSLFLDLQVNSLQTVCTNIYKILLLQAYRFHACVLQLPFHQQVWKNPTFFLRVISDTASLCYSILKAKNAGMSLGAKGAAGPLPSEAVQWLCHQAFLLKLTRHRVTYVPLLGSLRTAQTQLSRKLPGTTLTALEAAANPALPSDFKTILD
T1 sequence (O60832 whole entry partner): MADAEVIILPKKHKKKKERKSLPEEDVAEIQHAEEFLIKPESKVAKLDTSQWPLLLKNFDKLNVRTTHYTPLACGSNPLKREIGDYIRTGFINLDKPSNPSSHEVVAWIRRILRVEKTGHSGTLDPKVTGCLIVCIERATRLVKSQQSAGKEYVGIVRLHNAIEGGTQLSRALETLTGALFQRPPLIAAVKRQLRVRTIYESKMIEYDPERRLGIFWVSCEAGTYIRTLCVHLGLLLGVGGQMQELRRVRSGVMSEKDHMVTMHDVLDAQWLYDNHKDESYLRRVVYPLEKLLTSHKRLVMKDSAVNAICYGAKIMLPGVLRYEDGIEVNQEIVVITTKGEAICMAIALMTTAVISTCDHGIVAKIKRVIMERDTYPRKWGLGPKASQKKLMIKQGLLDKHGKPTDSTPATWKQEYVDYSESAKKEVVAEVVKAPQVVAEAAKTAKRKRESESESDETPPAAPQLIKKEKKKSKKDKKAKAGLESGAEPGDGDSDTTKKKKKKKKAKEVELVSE
T1 sequence (Q9NPE3 whole entry partner): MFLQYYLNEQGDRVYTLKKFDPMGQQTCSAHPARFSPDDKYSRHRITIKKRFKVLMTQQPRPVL
T1 sequence (Q9NX24 whole entry partner): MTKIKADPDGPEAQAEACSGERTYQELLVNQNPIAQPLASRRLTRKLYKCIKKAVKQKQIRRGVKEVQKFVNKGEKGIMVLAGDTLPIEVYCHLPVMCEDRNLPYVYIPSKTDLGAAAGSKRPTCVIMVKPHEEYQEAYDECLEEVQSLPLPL
T1 sequence (Q9NY12 whole entry partner): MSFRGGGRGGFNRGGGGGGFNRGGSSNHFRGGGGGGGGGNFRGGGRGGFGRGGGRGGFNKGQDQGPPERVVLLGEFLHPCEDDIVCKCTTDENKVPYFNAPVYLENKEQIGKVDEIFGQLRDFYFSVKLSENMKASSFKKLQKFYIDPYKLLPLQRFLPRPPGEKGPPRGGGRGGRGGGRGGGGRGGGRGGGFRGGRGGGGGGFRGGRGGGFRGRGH
T1 sequence (Q9BUR4 whole entry partner): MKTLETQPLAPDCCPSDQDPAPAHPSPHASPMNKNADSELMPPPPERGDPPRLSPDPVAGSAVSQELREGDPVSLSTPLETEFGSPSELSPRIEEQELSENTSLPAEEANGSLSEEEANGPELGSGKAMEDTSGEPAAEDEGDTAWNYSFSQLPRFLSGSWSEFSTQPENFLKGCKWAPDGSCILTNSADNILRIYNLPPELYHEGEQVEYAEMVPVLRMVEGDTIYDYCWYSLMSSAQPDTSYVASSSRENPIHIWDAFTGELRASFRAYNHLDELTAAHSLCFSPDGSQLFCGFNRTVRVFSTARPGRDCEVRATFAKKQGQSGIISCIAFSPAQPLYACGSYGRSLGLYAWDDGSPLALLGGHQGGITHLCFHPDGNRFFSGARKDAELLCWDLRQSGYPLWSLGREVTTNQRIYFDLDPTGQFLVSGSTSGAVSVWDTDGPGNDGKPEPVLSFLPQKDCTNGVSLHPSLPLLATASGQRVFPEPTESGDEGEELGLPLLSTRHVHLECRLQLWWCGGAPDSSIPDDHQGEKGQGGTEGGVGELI

For the compound arsenic trioxide, the “arsenic trioxide related toxicity” value in series [1] (patients, first stage, arsenic trioxide intravenously) was “None of these patients experienced any arsenic trioxide related toxicity”.
Take `C#C[C@]1(O)CC[C@H]2[C@@H]3CCC4=Cc5oncc5C[C@]4(C)[C@H]3CC[C@@]21C` [danazol]: the telomere attrition result with telomere is reported as “significantly reduce telomere attrition”.
In the case of arsenic trioxide [LDA], the “bone marrow cell loss (loss of cellularity), H&E staining” value in the series with bone marrow cells (LDA pretreatment (drinking water 1 mg/L arsenic trioxide, three days) before 200 μCi Y-90 ibritumomab tiuxetan via tail vein) is on record as “protected; also recorded: significantly reduced”. In addition, in the series on bone marrow cells (LDA pretreatment before 200 μCi Y-90 ibritumomab tiuxetan), the “apoptosis, TUNEL positive cells in bone marrow” value is given as “protected”. Moreover, the “DNA DSBs, γ-H2AX positive cells in bone marrow” value in the series with bone marrow cells (LDA pretreatment before 200 μCi Y-90 ibritumomab tiuxetan, 6 hours to 1 week after treatment) was “protected; also recorded: considerably diminished”. Further, in the series on Karpas 422 (LDA pretreatment alone), the “growth of the implanted tumors (tumor volume)” value is listed as “did not have any detectable effect”. The “effect of LDA pretreatment on Y-90-induced tumor growth suppression” value in the series on Karpas 422 (LDA pretreatment followed by Y-90 ibritumomab tiuxetan) is listed as “without compromising tumor response; also recorded: no effect”. Also, the “telomere length after IR” value in the series with peripheral T-lymphocytes is listed as “maintenance of telomere length; also recorded: helps prevent shortening of telomere length”. In addition, the “telomere length of leukemic cells” value in series [2] was “does not make any difference”. Also, the “mean ANC, WBC and Hgb, p53 suppressed group relative to activated group” value in series [1] (26 patients, LDA 0.005 mg/kg for 3 days before myelosuppressive chemotherapy cycles) was “statistically significantly higher; also recorded: better blood counts”. Further, the “LDA protection of control and msh2−/− cells from γ radiation (survival fraction)” value in [3] (100 nM Na arsenite 24 hours before γ radiation) is “protects both control and msh2^−/− cells from γ radiation”. In series [3] (100 nM Na arsenite, γ radiation, differences small), the “LDA-mediated protection in p53−/− cells versus WT (survival fraction)” value is listed as “p53 appears to assist in LDA-mediated protection”. In the series on untransformed cells, the glycolysis result is reported as “marked induction of glycolysis”; the “p53 and NF-kB response” value is “induces concerted p53 suppression and NF-kB activation”.
Consider `O=[As]O` [sodium arsenite], for which the “spontaneous deletion of miniHPRT (percentage of 6-TG-resistant cells)” value in series [4] (5 nM sodium arsenite) and in [4] (100 nM sodium arsenite) was “reduced this deletion” throughout.
For `[AsH3]` [arsenic], the “telomerase activity (TRAP)” value at telomerase is “no obvious difference in telomerase activity”. In addition, the arsenic-induced malignancy entry in series [5] is “not observed any arsenic-induced malignancy”.
Take `O[As](O)O` [arsenite]: the “concentration resulting in induced proliferation with enhanced NF-κB and AP-1 activity” value in series [6] (24 hr) was at most 5 µM. Besides, the “concentration with statistically significant decrease of cell viability” value in series [6] is at least 10 µM.
